Patent publication US20250136606A1, “MODULATORS OF TRPML, THEIR COMPOSITIONS AND METHODS OF USE” (Caraway Therapeutics, Inc., priority 2021, published 2025)
pEC50: −log10 of the molar value.

What was measured:
Assay type in all cases: cell-based
Conditions in all cases: fluorescent calcium assay
TRPML3 = target: T1, TRPML3 (Homo sapiens, UniProt Q8TDD5); test: Fluorescent TRPML3 assay (performed as for TRPML1, substituting the TRPML3 subtype)
T1 construct: expressed in transfected cells
T1 sequence (Q8TDD5 1-553): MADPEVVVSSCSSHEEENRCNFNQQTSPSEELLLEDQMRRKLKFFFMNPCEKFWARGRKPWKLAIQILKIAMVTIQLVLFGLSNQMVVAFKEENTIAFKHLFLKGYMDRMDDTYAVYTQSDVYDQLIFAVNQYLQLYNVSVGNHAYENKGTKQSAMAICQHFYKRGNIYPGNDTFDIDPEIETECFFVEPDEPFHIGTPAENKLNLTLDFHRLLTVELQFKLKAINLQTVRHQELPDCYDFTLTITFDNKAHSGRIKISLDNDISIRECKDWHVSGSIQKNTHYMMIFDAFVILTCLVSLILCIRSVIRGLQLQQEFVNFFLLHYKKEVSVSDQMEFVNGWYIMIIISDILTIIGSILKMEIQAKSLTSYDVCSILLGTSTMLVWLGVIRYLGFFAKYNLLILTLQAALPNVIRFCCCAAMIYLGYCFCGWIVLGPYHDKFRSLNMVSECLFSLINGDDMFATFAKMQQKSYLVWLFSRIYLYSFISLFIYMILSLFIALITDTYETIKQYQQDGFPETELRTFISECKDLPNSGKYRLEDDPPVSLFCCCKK
How it was run: (§1)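 HEK-293 Trex, dox-induced (0.5 ug/mL), mutated for surface expression. Fluo4-AM 1 micromolar load ~60 min, dark; buffer modified Ringer's, 10 mM Ca. Cpds 20 micromolar–6 nanomolar final, half-log, n=3. Read ex 480/em 540; % activity vs controls; EC50 nonlinear fit.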

TRPML2 = target: T2, TRPML2 (Homo sapiens, UniProt Q8IZK6); test: Fluorescent TRPML2 assay (performed as for TRPML1, substituting the TRPML2 subtype)
T2 construct: expressed in transfected cells
T2 sequence (Q8IZK6 1-566): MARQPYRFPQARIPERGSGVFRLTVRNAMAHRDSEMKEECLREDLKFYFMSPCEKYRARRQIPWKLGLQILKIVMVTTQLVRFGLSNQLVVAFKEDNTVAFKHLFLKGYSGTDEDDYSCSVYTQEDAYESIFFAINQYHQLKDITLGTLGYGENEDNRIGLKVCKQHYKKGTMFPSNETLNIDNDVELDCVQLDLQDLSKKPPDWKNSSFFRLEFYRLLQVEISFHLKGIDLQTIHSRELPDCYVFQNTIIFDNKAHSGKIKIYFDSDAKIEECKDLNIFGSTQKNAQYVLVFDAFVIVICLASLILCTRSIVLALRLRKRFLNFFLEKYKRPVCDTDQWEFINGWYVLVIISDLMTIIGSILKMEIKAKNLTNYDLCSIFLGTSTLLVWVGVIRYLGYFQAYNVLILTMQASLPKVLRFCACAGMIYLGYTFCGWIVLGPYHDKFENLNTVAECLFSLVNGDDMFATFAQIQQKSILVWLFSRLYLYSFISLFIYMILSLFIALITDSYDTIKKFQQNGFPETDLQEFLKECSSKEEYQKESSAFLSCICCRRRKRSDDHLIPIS
How it was run: as §1

TRPML1 = TRPML1 (Homo sapiens, UniProt Q9GZU1); test: Fluorescent TRPML1 assay (Fluo4-AM calcium fluorescence in doxycycline-induced HEK-293 Trex cells)
Sequence of TRPML1 (Q9GZU1 whole entry L15A/L16A/L577A/L578A, form open): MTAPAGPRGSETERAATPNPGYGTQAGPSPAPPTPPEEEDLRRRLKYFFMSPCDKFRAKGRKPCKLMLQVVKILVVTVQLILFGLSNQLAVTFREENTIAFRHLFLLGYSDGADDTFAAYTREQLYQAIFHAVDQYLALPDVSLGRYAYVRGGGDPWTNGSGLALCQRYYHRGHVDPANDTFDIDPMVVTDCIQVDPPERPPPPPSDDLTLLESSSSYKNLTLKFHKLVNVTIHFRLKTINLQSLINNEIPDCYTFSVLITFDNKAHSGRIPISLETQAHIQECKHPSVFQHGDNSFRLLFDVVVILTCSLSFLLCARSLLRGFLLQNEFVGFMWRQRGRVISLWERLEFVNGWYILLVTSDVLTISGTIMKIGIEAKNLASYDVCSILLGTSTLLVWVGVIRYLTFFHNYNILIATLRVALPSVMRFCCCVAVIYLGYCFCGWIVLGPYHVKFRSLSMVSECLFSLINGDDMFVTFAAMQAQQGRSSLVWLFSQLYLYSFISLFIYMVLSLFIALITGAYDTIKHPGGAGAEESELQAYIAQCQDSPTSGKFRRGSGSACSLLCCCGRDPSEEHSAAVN
How it was run: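 HEK-293 Trex cells stably carrying human TRPML1 (surface-trafficking mutant) were induced overnight with 0.5 ug/mL doxycycline, loaded with 1 micromolar Fluo4-AM, and suspended in Ringer's with 10 mM calcium. Compounds at 20 micromolar to 6 nanomolar final, half-log steps, triplicate; fluorescence 480/540 nm gave percent activity versus controls and EC50 by non-linear regression.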

Row | pEC50 (TRPML3) | pEC50 (TRPML2) | pEC50 (TRPML1) | SMILES
1 | > 7.00 | 5.70 to 6.30 | > 7.00 | C[C@H]1CN(C(=O)OC(C)(C)C)CCN1c1ncnc2c1c(N(C)C1CC1)cn2-c1cc(C#N)ccn1 [Compound 442, tert-butyl (S)-4-(7-(4-cyanopyridin-2-yl)-5-(cyclopropyl(methyl)amino)-7H-pyrrolo[2,3-d]pyrimidin-4-yl)-3-methylpiperazine-1-carboxylate]
2 | > 7.00 | > 7.00 | > 7.00 | CC(C)N(C)c1cn(-c2cc(C#N)ccn2)c2ncnc(N3CCN(C(=O)OC(C)(C)C)C[C@@H]3C)c12 [Compound 443, tert-butyl (S)-4-(7-(4-cyanopyridin-2-yl)-5-(isopropyl(methyl)amino)-7H-pyrrolo[2,3-d]pyrimidin-4-yl)-3-methylpiperazine-1-carboxylate]
3 | > 7.00 | 6.30 to 7.00 | > 7.00 | Cc1cc(-n2cc(-c3ccccc3F)c3c(N4CCN(C(=O)OC(C)(C)C)C[C@@H]4C)ncnc32)cc(C#N)n1 [Compound 444, tert-butyl (S)-4-(7-(2-cyano-6-methylpyridin-4-yl)-5-(2-fluorophenyl)-7H-pyrrolo[2,3-d]pyrimidin-4-yl)-3-methylpiperazine-1-carboxylate]
4 | > 7.00 | 6.30 to 7.00 | > 7.00 | C[C@H]1CN(C(=O)OC(C)(C)C)CCN1c1ncnc2c1c(C1CC1)cn2-c1cc(C#N)n(C)c1 [Compound 445, tert-butyl (S)-4-(7-(5-cyano-1-methyl-1H-pyrrol-3-yl)-5-cyclopropyl-7H-pyrrolo[2,3-d]pyrimidin-4-yl)-3-methylpiperazine-1-carboxylate]
5 | > 7.00 | 6.30 to 7.00 | > 7.00 | C[C@H]1CN(C(=O)OC(C)(C)C)CCN1c1nccc2c1c(C1CC1)cn2-c1cc(C#N)ccn1 [Compound 446, tert-butyl (S)-4-(1-(4-cyanopyridin-2-yl)-3-cyclopropyl-1H-pyrrolo[3,2-c]pyridin-4-yl)-3-methylpiperazine-1-carboxylate]
6 | > 7.00 | > 7.00 | > 7.00 | C[C@H]1CN(C(=O)OC(C)(C)C)CCN1c1ncnc2c1c(-c1ccccc1F)cn2-c1cc(C#N)cnn1 [Compound 447, tert-butyl (S)-4-(7-(5-cyanopyridazin-3-yl)-5-(2-fluorophenyl)-7H-pyrrolo[2,3-d]pyrimidin-4-yl)-3-methylpiperazine-1-carboxylate]
7 | > 7.00 | 6.30 to 7.00 | > 7.00 | C[C@H]1CN(C(=O)OC(C)(C)C)CCN1c1ncnc2c1c(-c1ccccc1F)cn2-c1cnnc(C#N)c1 [Compound 448, tert-butyl (S)-4-(7-(6-cyanopyridazin-4-yl)-5-(2-fluorophenyl)-7H-pyrrolo[2,3-d]pyrimidin-4-yl)-3-methylpiperazine-1-carboxylate]
8 | > 7.00 | 6.30 to 7.00 | > 7.00 | C[C@H]1CN(C(=O)OC(C)(C)C)CCN1c1nccc2c1c(-c1ccccc1F)cn2-c1cc(C#N)ccn1 [Compound 449, tert-butyl (S)-4-(1-(4-cyanopyridin-2-yl)-3-(2-fluorophenyl)-1H-pyrrolo[3,2-c]pyridin-4-yl)-3-methylpiperazine-1-carboxylate]
9 | 6.30 to 7.00 | < 5.70 | 6.30 to 7.00 | C[C@H]1CN(C(=O)OC(C)(C)C)CCN1c1ncnc2c1c(-c1ccccc1F)cn2-c1ccnnc1 [Compound 451, tert-butyl (S)-4-(5-(2-fluorophenyl)-7-(pyridazin-4-yl)-7H-pyrrolo[2,3-d]pyrimidin-4-yl)-3-methylpiperazine-1-carboxylate]
10 | > 7.00 | 6.30 to 7.00 | > 7.00 | C[C@@H]1CN(c2ncnc3c2c(-c2ccccc2F)cn3-c2cc(F)ccn2)[C@@H](C)CN1C(=O)OC(C)(C)C [Compound 452, tert-butyl (2R,5S)-4-(5-(2-fluorophenyl)-7-(4-fluoropyridin-2-yl)-7H-pyrrolo[2,3-d]pyrimidin-4-yl)-2,5-dimethylpiperazine-1-carboxylate]
11 | > 7.00 | 6.30 to 7.00 | > 7.00 | C[C@H]1CN(C(=O)OC(C)(C)C)CCN1c1ncnc2c1c(C1CC1)cn2-c1cc(F)ccn1 [Compound 453, tert-butyl (S)-4-(5-cyclopropyl-7-(4-fluoropyridin-2-yl)-7H-pyrrolo[2,3-d]pyrimidin-4-yl)-3-methylpiperazine-1-carboxylate]
12 | > 7.00 | > 7.00 | > 7.00 | C[C@@H]1CN(c2ncnc3c2c(-c2ccccc2F)cn3-c2cc(Cl)ccn2)[C@@H](C)CN1C(=O)OC(C)(C)C [Compound 454, tert-butyl (2R,5S)-4-(7-(4-chloropyridin-2-yl)-5-(2-fluorophenyl)-7H-pyrrolo[2,3-d]pyrimidin-4-yl)-2,5-dimethylpiperazine-1-carboxylate]
13 | > 7.00 | 6.30 to 7.00 | > 7.00 | CC(C)(C)OC(=O)N1CCN(c2ncnc3c2c(-c2ccccc2F)cn3-c2ncc(C#N)s2)CC1 [Compound 455, tert-butyl 4-(7-(5-cyanothiazol-2-yl)-5-(2-fluorophenyl)-7H-pyrrolo[2,3-d]pyrimidin-4-yl)piperazine-1-carboxylate]
14 | 6.30 to 7.00 | 5.70 to 6.30 | 5.70 to 6.30 | C[C@H]1CN(C(=O)OC(C)(C)C)CCN1c1ncnc2c1c(C1CC1)cn2-c1ccc(C#N)n1C [Compound 456, tert-butyl (S)-4-(7-(5-cyano-1-methyl-1H-pyrrol-2-yl)-5-cyclopropyl-7H-pyrrolo[2,3-d]pyrimidin-4-yl)-3-methylpiperazine-1-carboxylate]
15 | > 7.00 | > 7.00 | > 7.00 | C[C@H]1CN(C(=O)OC(C)(C)C)CCN1c1ncnc2c1c(C1CC1)cn2-c1cc(Cl)ccn1 [Compound 457, tert-butyl(S)-4-(7-(4-chloropyridin-2-yl)-5-cyclopropyl-7H-pyrrolo[2,3-d]pyrimidin-4-yl)-3-methylpiperazine-1-carboxylate]
16 | 6.30 to 7.00 | 6.30 to 7.00 | > 7.00 | Cc1nccnc1-c1cn(-c2cc(C#N)ccn2)c2ncnc(N3C[C@@H](C)N(C(=O)OC(C)(C)C)C[C@@H]3C)c12 [Compound 458, tert-butyl (2R,5S)-4-(7-(4-cyanopyridin-2-yl)-5-(3-methylpyrazin-2-yl)-7H-pyrrolo[2,3-d]pyrimidin-4-yl)-2,5-dimethylpiperazine-1-carboxylate]
17 | > 7.00 | 6.30 to 7.00 | > 7.00 | C[C@@H]1CN(c2ncnc3c2c(-c2ccccc2F)cn3-c2nccc(C#N)n2)[C@@H](C)CN1C(=O)OC(C)(C)C [Compound 460, tert-butyl (2R,5S)-4-(7-(4-cyanopyrimidin-2-yl)-5-(2-fluorophenyl)-7H-pyrrolo[2,3-d]pyrimidin-4-yl)-2,5-dimethylpiperazine-1-carboxylate]
18 | > 7.00 | 6.30 to 7.00 | > 7.00 | Cc1nccnc1-c1cn(-c2cccc(Cl)c2)c2ncnc(N3C[C@@H](C)N(C(=O)OC(C)(C)C)C[C@@H]3C)c12 [Compound 461, tert-butyl (2R,5S)-4-(7-(3-chlorophenyl)-5-(3-methylpyrazin-2-yl)-7H-pyrrolo[2,3-d]pyrimidin-4-yl)-2,5-dimethylpiperazine-1-carboxylate]
